Assay: gradient 5% acetonitrile 3 min, to 50% in 2 min, to 85% in 15 min, held 3 min, 100 µL/min
Conditions: column: Zorbax Extend-C18 2.1 x 50 mm; eluents: water / acetonitrile, 0.1% formic acid
In short: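 Using water and acetonitrile that each contained 0.1% formic acid, mixtures of ~100 pure standards were separated at 100 μL/min on a Zorbax Extend-C18 column (2.1 × 50 mm, 1.8 μm). The HPLC fed a quadrupole time-of-flight mass spectrometer working in positive and negative ionization mode, with dead and dwell volumes of 40 μL and 900 μL. Data were acquired over 3 months. Retention time was read from computationally picked adduct peaks after manual inspection of each.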

| Structure (SMILES) | RP-LC retention time |
| --- | --- |
| Cn1ncc2c(Nc3cccc(Cl)c3)nc(N3CCN(C4CCCCC4)CC3)nc21 | 751 s |
| Cc1cc(C)cc(NC(=O)C2CCN(C(=O)C3Sc4ccccc4NC3=O)CC2)c1 (centres undefined) | 818 s |
| Cc1ccc(NC(=O)C2CCN(S(=O)(=O)c3cn(C)cn3)CC2)c(C)c1 | 706 s |
| c1cc(-c2noc(-c3ccsc3)n2)cc(N2CCCC2)n1 | 664 s |
| CSc1cccc(NC(=O)N2CCCC2c2nc(-c3cccc(C)c3)no2)c1 (centres undefined) | 1080 s |
| CCCc1noc(CN2N=C(C(=O)N3CCC(C)CC3)S(=O)(=O)c3ccc(C)cc32)n1 | 1010 s |
| COc1ccccc1Nc1c(-c2ccc3c(c2)OCO3)nc2cnccn12 | 859 s |
| CCOC(=O)c1[nH]c2ccccc2c1NC(=O)c1ccc(N2C(=O)CCC2=O)cc1 | 699 s |
| Cc1ccc(Nc2cc(N3CCC(C(=O)N4CCC5(CC4)OCCO5)CC3)ncn2)cc1 | 645 s |
| CCN1C(=O)COc2ccc(-c3noc(COc4ccc(Cl)cc4)n3)cc21 | 1110 s |
| c1ccc(-c2nc(-c3cn(-c4ccccc4)nn3)no2)cc1 | 1020 s |
| CC1CCCCN1S(=O)(=O)c1cc(-c2nnc(C3CC3)o2)co1 (centres undefined) | 896 s |
| CCCN1C(=O)c2cc(S(=O)(=O)N3CCCCCC3)ccc2Oc2cccnc21 | 1180 s |
| O=C(NC1CCCCC1)C1CCCN(c2ncc(-c3ccccc3)cn2)C1 (centres undefined) | 1070 s |
| CCn1nccc1-c1nc(C2CC(=O)N(c3ccc(C)cc3)C2)no1 (centres undefined) | 680 s |
| CCOc1ccc(C(=O)N2CCC(c3cc(N)on3)CC2)cc1 | 686 s |
| CC(C)n1cnc(S(=O)(=O)N2CCC(C(=O)NCc3ccccc3)CC2)c1 | 712 s |
| COCc1c(C(=O)O)nnn1-c1ccc(F)c(F)c1 | 723 s |
| Cc1nn(-c2ccc(N3CCCCC3)nn2)c(C)c1CCC(=O)NCCCc1ccco1 | 665 s |
| Cc1ccc(NS(=O)(=O)c2ccc3c(c2)C(=O)N(C)c2ncccc2O3)cc1C | 970 s |
| CC1=NS(=O)(=O)N(C)C=C1C(=O)OCc1ccc(Cl)cc1 | 978 s |
| CC(=O)Nc1ccc(-c2nc(-c3cccc(-c4ccn[nH]4)c3)no2)cc1 | 790 s |
| COc1ccccc1-c1nc(-c2cccc(-c3ccnn3C)c2)no1 | 1020 s |

| Structure (SMILES) | RP-LC retention time |
| --- | --- |
| CCc1ccccc1N1C(=O)CN(S(=O)(=O)c2ccccc2)CC1(C)C(=O)NC1CCCC1 (centres undefined) | 960 s |
| CC1(C(=O)NCc2ccccc2)Oc2cccnc2NC1=O (centres undefined) | 638 s |
| Cc1ccc(-c2cn3c(CC(=O)Nc4ccc(F)cc4C)csc3n2)cc1C | 862 s |
| Cc1ccc(S(=O)(=O)c2cnc(N3CCN(c4cc(Cl)ccc4C)CC3)nc2N)cc1C | 1420 s |
| CCn1ncn2cc(S(=O)(=O)Nc3ccccc3C)cc2c1=O | 863 s |
| COCc1noc(C2CN(C(=O)c3ccc(Cl)s3)CC23CCCC3)n1 (centres undefined) | 962 s |
| CO[C@H]1CN(C2CCN(S(=O)(=O)Cc3ccccc3)CC2)[C@H]1c1ccncc1 | 612 s |
| COc1ccc(-c2nnc(COc3ccc(NC(=O)CNC(=O)Cc4ccccc4)cc3)o2)cc1 | 812 s |
| O=C(NCc1cccs1)N1CCN(c2nc3c(F)cc(F)cc3s2)CC1 | 849 s |
| Cc1ccc(N2CC(c3noc(-c4ccc(C)nc4)n3)CC2=O)cc1 (centres undefined) | 799 s |
| CC(C)n1c(CCNC(=O)c2c(F)cccc2F)nc2cccnc21 | 632 s |
| COCCNC(=O)C1CCCN(C(=O)c2cccc(C(F)(F)F)c2)C1 (centres undefined) | 693 s |
| CCC(CC)CN1CCC(n2c(C)cnc2-c2ccccc2)C1 (centres undefined) | 559 s |
| CC1=C(c2ccccc2)S(=O)(=O)N=C1N1CCCN(C(=O)c2ccc(Cl)cc2)CC1 | 863 s |
| O=C(NCc1nc(-c2ccccc2)no1)C1CCN(Cc2nc3ccccc3[nH]2)CC1 | 581 s |
| CCN(CC)CCCNc1ccc(-c2nc(-c3ccc(OC)cc3)no2)cn1 | 681 s |
| CC(=O)c1cccc(NC(=O)Cn2cc(-c3nnc(C)o3)c3ccccc32)c1 | 755 s |
| O=C(C1CCN(c2ncccc2-c2nc(-c3ccccc3)no2)CC1)N1CCN(c2ncccn2)CC1 | 967 s |
| COc1ccc(N2CCN(C(=O)COc3nccc(C)n3)CC2)cc1 | 617 s |
| CCc1cc(=O)n(CC(=O)Nc2ccccc2CC)c(N2CCOCC2)n1 | 784 s |
| CC1=CC2(C)NC(=O)C(C)C12 (centres undefined) | 710 s |
| CC1CCCCN1CCCNC(=O)C1=Cc2cc(Br)ccc2OC1 (centres undefined) | 696 s |
| COc1ccc(CNC(=O)C2(C)CCN(C(=O)NCc3ccco3)CC2)cc1 | 700 s |

| Structure (SMILES) | RP-LC retention time |
| --- | --- |
| CCCN(C(=O)CC)c1nc(-c2ccccc2)cs1 | 1210 s |
| O=C(CN1CCN(C(=O)Nc2ccc(Cl)cc2)CC1=O)N1CCN(c2ccc(F)cc2)CC1 | 766 s |
| CCCN(C)c1nccn2c(=O)n(CC(=O)Nc3cccc(Br)c3)nc12 | 730 s |
| CCOc1ccc(S(=O)(=O)N(C)C)c2ccccc12 | 950 s |
| COc1ccc2[nH]c(=O)c(CCC(=O)Nc3ccc(OC)c(OC)c3)cc2c1 | 666 s |
| CCOC(=O)c1cnc2cc(Cl)c(OC)cc2c1N1CCN(c2cccc(Cl)c2)CC1 | 1240 s |
| CC(C)(C)NC(=O)c1ccc(-c2nnc3ccc(NC(=O)C4CC4)cn23)cc1 | 731 s |
| Cc1nc(C(=O)Nc2ccccc2)c(C)n1C1CCN(S(C)(=O)=O)CC1 | 648 s |
| O=C(NCCC1CCN(C(=O)Nc2cc(F)cc(F)c2)CC1)C1CC1 | 735 s |
| CCC(=C(c1ccccc1)c1ccc(OCCN(C)C)cc1)c1ccccc1 | 1010 s |
| CCc1nn2c(CNS(=O)(=O)Cc3ccccc3Cl)c(-c3ccccc3)nc2s1 | 1010 s |
| Cn1c(CCC(=O)NCc2ccc(C(F)(F)F)cc2)nc2ccccc2c1=O | 825 s |
| COC(=O)c1ccc(NC(=O)c2cnc(-c3ccc(C)cc3)nc2-c2ccncc2)cc1 | 961 s |
| O=C(Cn1cnc2nc(N3CCC(C(=O)NC4CC4)CC3)sc2c1=O)Nc1ccc(F)cc1 | 655 s |
| O=C(Cn1ccnc1-c1ccnc(N2CCSCC2)c1)NCc1ccc(Cl)cc1 | 674 s |
| Cn1c(N2CCCC(C(=O)NCC3CCN(Cc4ccc(F)cc4)CC3)C2)cc(=O)n(C)c1=O (centres undefined) | 590 s |
| CC(C)c1cc(C(=O)Nc2ccc(Cl)cc2)no1 | 1080 s |
| COc1ccc(Cl)cc1NC(=O)C1CC(=O)N(c2ccc3c(c2)CCN3C(C)=O)C1 (centres undefined) | 774 s |
| O=C(Cc1c(F)cccc1Cl)Nc1nc2c(s1)CN(S(=O)(=O)c1ccccc1)CC2 | 950 s |
| Cc1ccc(C(=O)N(CC(=O)N(Cc2ccco2)CC2CCCO2)C(C)(C)C)cc1 (centres undefined) | 907 s |
| CCn1nnc2ccc(-c3noc(Cc4ccc(OC)c(OC)c4)n3)cc21 | 864 s |
| CCCSCCCNC(=O)Cn1cnc2nc3c(cc2c1=O)CC(C)CC3 (centres undefined) | 778 s |
| CCn1c(C(=O)N2CCN(c3cccc(C)c3)C(C)C2)cc2sccc21 (centres undefined) | 1050 s |

| Structure (SMILES) | RP-LC retention time |
| --- | --- |
| Cn1nnc2ccc(-c3noc(-c4cccc(Cl)c4)n3)cc21 | 1120 s |
| O=C(NC1CC1)[C@@H]1C[C@H](Oc2ccccc2)CN1C(=O)c1ccsc1 | 733 s |
| Cn1cc(C(F)(F)F)nc1-c1ccc(OCC(O)CNCCOc2ccc(O)c(C(N)=O)c2)cc1 (centres undefined) | 710 s |
| O=C(CCC(=O)N1CCSc2ccccc21)N1CCN(c2ccccn2)CC1 | 618 s |
| O=C1CC(c2noc(-c3ccc(F)cc3)n2)CN1c1ccc(F)c(Cl)c1 (centres undefined) | 1100 s |
| COc1ccccc1C(=O)Nc1nnc(SCc2nnc(-c3ccccc3)o2)s1 | 914 s |
| O=C(NCCCc1ccccc1)C1CCc2nc(N3CCOCC3)ncc2C1 (centres undefined) | 744 s |
| COc1ccc(-n2ccc(=O)c(-c3nc(-c4cccc(Br)c4)no3)n2)cc1 | 985 s |
| CC(=O)NCc1nc(-c2ccc3oc(-c4ccccc4)nc3c2)no1 | 805 s |
| O=C(/C=C/c1ccccc1)NC(NC(=S)Nc1ccc(Cl)cc1)C(Cl)(Cl)Cl (centres undefined) | 1030 s |
| CCCCS(=O)(=O)N1CCN(c2ccc(Nc3cc(C)ccn3)nn2)CC1 | 585 s |
| COc1ccc(Br)cc1CNC(=O)C1CCCN(C(=O)c2[nH]c(C)cc2C)C1 (centres undefined) | 808 s |
| Cc1ccccc1-c1noc(Cn2nc(-c3ccccc3F)ccc2=O)n1 | 986 s |
| Cc1ccc(Cl)cc1NC(=O)c1[nH]c(C)c(S(=O)(=O)N2CCCC2)c1C | 949 s |
| CCOc1ccc(CNC(=O)Cc2csc3nc(-c4ccc(C)c(C)c4)cn23)cc1 | 847 s |
| COc1ccc(NS(=O)(=O)c2cc3c(s2)CCN(C(=O)C2CC2)C3)cc1F | 762 s |
| Cc1noc([C@@H]2CN(C(=O)c3cc(C4CC4)[nH]n3)C[C@H]2C(N)=O)n1 | 596 s |
| COCCNC(=O)C1CCN(c2nc3ccc(-c4ccc(OC)cc4)nc3s2)CC1 | 805 s |
| Cc1nc2cc(-c3noc(-c4ccccc4)n3)ccc2o1 | 1050 s |
| O=S(=O)(Cc1ccccc1Cl)N1CCc2nc(-c3ccc(Cl)cc3)ncc2C1 | 1220 s |
